According to PMC6177011, “Idebenone and coenzyme Q10 are novel PPARα/γ ligands, with potential for treatment of fatty liver diseases” (Disease Models & Mechanisms, 2018):

Columns and labels:
Format in all cases: cell-based
[1] = target: T1, PPARα (Homo sapiens, UniProt Q07869); test: co-purification with purified LBD and LC-MS; EC50 from GAL4-LBD luciferase reporter in HEK293
T1 construct: gene PPARA; His-tagged PPARα LBD
T1 sequence (Q07869 196-468 limits assumed): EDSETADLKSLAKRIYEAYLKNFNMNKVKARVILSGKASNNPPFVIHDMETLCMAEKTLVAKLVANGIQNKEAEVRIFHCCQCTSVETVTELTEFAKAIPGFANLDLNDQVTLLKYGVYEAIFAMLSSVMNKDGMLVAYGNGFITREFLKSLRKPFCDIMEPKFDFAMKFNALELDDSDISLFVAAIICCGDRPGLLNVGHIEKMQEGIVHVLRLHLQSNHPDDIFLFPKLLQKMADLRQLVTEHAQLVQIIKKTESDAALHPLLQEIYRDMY

[2] = target: T2, hPPARδ/β (Homo sapiens, UniProt Q03181); test: GAL4-LBD UAS-luciferase reporter in HEK293
T2 construct: gene PPARD; GAL4-hPPARδ LBD fusion
T2 sequence (Q03181 171-441 limits assumed): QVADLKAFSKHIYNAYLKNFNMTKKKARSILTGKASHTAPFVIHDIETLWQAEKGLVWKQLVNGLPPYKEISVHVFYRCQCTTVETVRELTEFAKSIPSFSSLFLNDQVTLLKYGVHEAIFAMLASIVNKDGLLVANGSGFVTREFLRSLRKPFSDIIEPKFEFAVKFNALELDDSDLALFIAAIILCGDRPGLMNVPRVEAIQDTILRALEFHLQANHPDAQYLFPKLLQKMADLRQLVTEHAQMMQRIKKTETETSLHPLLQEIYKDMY

[3] = target: T3, PPARγ (Homo sapiens, UniProt P37231); test: antagonism of the human PPARγ LBD ligand-trap GFP reporter in transgenic zebrafish
T3 construct: gene PPARG; PPARγ (aa 189-477) LBD fusion
T3 sequence (P37231 217-505): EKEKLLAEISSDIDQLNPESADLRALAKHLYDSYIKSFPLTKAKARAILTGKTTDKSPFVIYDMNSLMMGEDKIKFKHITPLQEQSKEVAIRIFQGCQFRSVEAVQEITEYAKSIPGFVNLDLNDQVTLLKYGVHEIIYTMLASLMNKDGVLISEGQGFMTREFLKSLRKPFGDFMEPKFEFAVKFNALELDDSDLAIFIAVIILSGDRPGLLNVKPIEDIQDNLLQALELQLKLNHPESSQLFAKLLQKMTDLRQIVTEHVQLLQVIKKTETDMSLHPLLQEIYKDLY

## COC1=C(OC)C(=O)C(CCCCCCCCCCO)=C(C)C1=O [idebenone]
[1]
  EC50: 2500 nM

## O=C(O)COc1ccc(SCC=C(c2ccc(Br)cc2)c2ccc(Br)cc2)cc1Cl [CAY10592]
[2]
  EC50: 12.8 nM

## O=C(Nc1ccccc1)c1cc([N+](=O)[O-])ccc1Cl [GW9662]
[3]
  antagonism of the human PPARγ LBD ligand-trap GFP reporter in transgenic zebrafi: The GW9662 suicide antagonist blocks agonist activity of rosiglitazone and idebenone, but not of RA
